In patent publication US10434199B2, “Picolinate cross-bridged cyclams, chelates with metallic cations and use thereof” (UNIVERSITÉ DE BRETAGNE OCCIDENTALE, priority 2013, dated 2019):

Assays:
[1] = Potentiometric titrations: stability constants and pM of Cu^2+ complexes; assay type: physicochemical
Description: Equipment and work conditions. The potentiometric setup has been described in Roger, M. et al. Inorg. […] Ligand solutions were prepared at about 2.0×10^−3 M, and the Cu^2+ and Zn^2+ solutions at ca. 0.05 M from analytical grade nitrate salts and standardized by complexometric titrations with H4edta (ethylenediaminetetraacetic acid). Sample solutions for titration contained approximately 0.04 mmol of ligand in a volume of 30 mL where the ionic strength was kept at 0.10 M using KNO3 as background electrolyte. Metal cations were added at 0.9 equiv. of the ligand amount in complexation titrations. Batch titrations were prepared in a similar way but with each titration point corresponding to 1/10 of the amount of a conventional titration sample.
(§1) Measurements. All measurements were carried out at 25.0±0.1° C. under inert atmosphere. The electromotive force of the sample solutions was measured after calibration of the electrodes by titration of a standard HNO3 solution at 2.0×10^−3 M in the work conditions. The [H^+] of the solutions was determined by measurement of the electromotive force of the cell, E=E^o′+Q log [H^+]+Ej. The term pH is defined as −log [H^+]. E^o′ and Q were determined from the acid region of the calibration curves. Deviations from the Nernst law at very low pH (pH<2.5) were corrected with the VLpH software (Calibration software from the maker of Hyperquad available for free at http://www.hyperquad.co.uk/), which performs a [H^+] correction based on a very low pH calibration procedure.
(§2) Calculations. The potentiometric data were refined with the Hyperquad software, and speciation diagrams were plotted using the HySS software. The overall equilibrium constants βi^H and βMmHhL1 are defined by βMmHhL1=[MmHhLl]/[M]^m[H]^h[L]^l (βi^H=[HhLl]/[H]^h[L]^l and βML-1L=βML(OH)×Kw). Differences in log units between the values of protonated (or hydrolysed) and non-protonated constants provide the stepwise (log K) reaction constants (being KMmHhL1=[MmHhLl]/[MmHh-1Ll][H]). The errors quoted are the standard deviations calculated by the fitting program from all the experimental data for each system.
(§3) The stability constants of the complexes formed by Hcb-te1pa with Cu^2+ and Zn^2+ were determined by potentiometric titrations in aqueous solution at 25.0° C. in 0.10 M KNO3 ionic strength (Table 2).
During titrations, each experimental point included a supplementary equilibration time in order to yield fully stabilized measurements. […] For this reason, batch titrations were prepared in the range of pH=4-6 and were left to equilibrate until full stabilization, while conventional titrations were used for the remaining pH regions.
For a correct comparison of the thermodynamic stability of the complexes of Hcb-te1pa with the corresponding values of other ligands from the literature, the pM values that take into account the variable basicity properties of different ligands were also calculated (Table 3). […] The thermodynamic stability is not the only important criterion to determine the efficiency of metal complexation because, depending on the application, other factors such as kinetic inertness or in vivo stability can be more important.

[2] = Potentiometric titrations: stability constants and pM of Zn^2+ complexes; assay type: physicochemical
Description: Equipment and work conditions. The potentiometric setup has been described in Roger, M. et al. Inorg. Chem. 2013, 52, 5246-5259. The titrant was a KOH solution prepared at ca. 0.1 M from a commercial ampoule of analytical grade, and its accurate concentration was obtained by application of the Gran's method upon titration of a standard HNO3 solution (Rossotti, F. J. and Rossotti, H. J. J. Chem. Educ. 1965, 42, 375-378). Ligand solutions were prepared at about 2.0×10^−3 M, and the Cu^2+ and Zn^2+ solutions at ca. 0.05 M from analytical grade nitrate salts and standardized by complexometric titrations with H4edta (ethylenediaminetetraacetic acid). Sample solutions for titration contained approximately 0.04 mmol of ligand in a volume of 30 mL where the ionic strength was kept at 0.10 M using KNO3 as background electrolyte. Metal cations were added at 0.9 equiv. of the ligand amount in complexation titrations. Batch titrations were prepared in a similar way but with each titration point corresponding to 1/10 of the amount of a conventional titration sample. Batch titration points were incubated in tightly closed vials at 25° C. until potential measurements attained complete stability, which happened within a week.
as §1, with “procedure. The liquid-junction potential, Ej, was otherwise found to be negligible for pH >2.5 under the experimental conditions used. […] Each titration consisted of 80-100 equilibrium points in the range of pH 2.5-11.5 (or 1.5-11.5 for Cu^2+ complexations), and at least two replicate titrations were performed for each particular system.” for “procedure.”
as §2, §3
The equilibrium of formation of the copper(II) and especially the zinc(II) complexes is slow in the acidic pH range. In the case of Cu^2+, the complexation is almost complete from low pH but relatively slow up to pH=4. To overcome this double problem, conventional titrations were performed at pH values below 2 in order to observe a significant percentage of free metal ion (at least 18%) and thus allow for determination of the corresponding stability constant, while giving the solution enough time to reach equilibrium prior to the start of the titration. During titrations, each experimental point included a supplementary equilibration time in order to yield fully stabilized measurements. […]

[3] = pH = 7.4, 100% excess of ligand, [M^2+]tot = 1 × 10^−5 M

O=C(O)c1cccc(CN2CCCN3CCNCCCN(CC3)CC2)n1 [Hcb-te1pa, 6-(1,4,8,11-tetraazabicyclo[6.6.2]hexadecan-4-ylmethyl)picolinic acid]
log KMLHh, Cu^2+ + L ⇌ CuL ([1]; 25.0° C., I = 0.10M KNO3): 26.00 log units | log βMLHh, Cu^2+ + L ⇌ CuL ([1]; 25.0° C., I = 0.10M KNO3): 26.00(5) log units | b) thermodynamic stability: log K[CuL] ([1]; overview table): 26.00 | b) thermodynamic stability: pCu ([1]; overview table, calculated pM): 15.67 | Calculated pM, Cu^2+ [1, 3]: 15.67 | log KMLHh, ZnLOH + H^+ ⇌ ZnL ([2]; 25.0° C., I = 0.10M KNO3): 11.33 log units | log KMLHh, Zn^2+ + L ⇌ ZnL ([2]; 25.0° C., I = 0.10M KNO3): 18.83 log units | log βMLHh, Zn^2+ + L ⇌ ZnL ([2]; 25.0° C., I = 0.10M KNO3): 18.83(6) log units | log βMLHh, Zn^2+ + L ⇌ ZnLOH + H^+ ([2]; 25.0° C., I = 0.10M KNO3): 7.50(7) log units | c) inertness vs Zn: log K[ZnL] ([2]; overview table): 18.83 | c) inertness vs Zn: pZn ([2]; overview table, calculated pM): 8.50 | Calculated pM, Zn^2+ [2, 3]: 8.50
